Where two headings read alike, the source gives them in different places. *1 amine or outer side, *2 acyl side, *3 side chain or, on linkers, in order; H or OH if unused. Where a SMILES comes first, the peptide text is derived from it. [ ]: non-standard residue; d: D form. The star is where a group is joined. Benzothienyl2CO(5-CF2PO3H2) = O=C(c1cc2cc(C(F)(F)P(=O)(O)O)ccc2s1)*; βAla(N-(4-Br-phenyl)) = O=C(CCN(c1ccc(Br)cc1)[*:1])[*:2]; NHBn(4-(4-Me-thiazol-5-yl)) = Cc1ncsc1-c1ccc(CN*)cc1; Hyp = O=C(O)[C@@H]1C[C@@H](O)CN1; Tle = CC(C)(C)[C@H](N)C(=O)O; Aoc = NCCCCCCCC(=O)O
Target: T1, STAT6 (Homo sapiens, UniProt P42226)
T1 construct: endogenous in cells; host or cells: MOLM-16, KU-812, SKNO1, MB231, L1236
T1 sequence (P42226 1-847): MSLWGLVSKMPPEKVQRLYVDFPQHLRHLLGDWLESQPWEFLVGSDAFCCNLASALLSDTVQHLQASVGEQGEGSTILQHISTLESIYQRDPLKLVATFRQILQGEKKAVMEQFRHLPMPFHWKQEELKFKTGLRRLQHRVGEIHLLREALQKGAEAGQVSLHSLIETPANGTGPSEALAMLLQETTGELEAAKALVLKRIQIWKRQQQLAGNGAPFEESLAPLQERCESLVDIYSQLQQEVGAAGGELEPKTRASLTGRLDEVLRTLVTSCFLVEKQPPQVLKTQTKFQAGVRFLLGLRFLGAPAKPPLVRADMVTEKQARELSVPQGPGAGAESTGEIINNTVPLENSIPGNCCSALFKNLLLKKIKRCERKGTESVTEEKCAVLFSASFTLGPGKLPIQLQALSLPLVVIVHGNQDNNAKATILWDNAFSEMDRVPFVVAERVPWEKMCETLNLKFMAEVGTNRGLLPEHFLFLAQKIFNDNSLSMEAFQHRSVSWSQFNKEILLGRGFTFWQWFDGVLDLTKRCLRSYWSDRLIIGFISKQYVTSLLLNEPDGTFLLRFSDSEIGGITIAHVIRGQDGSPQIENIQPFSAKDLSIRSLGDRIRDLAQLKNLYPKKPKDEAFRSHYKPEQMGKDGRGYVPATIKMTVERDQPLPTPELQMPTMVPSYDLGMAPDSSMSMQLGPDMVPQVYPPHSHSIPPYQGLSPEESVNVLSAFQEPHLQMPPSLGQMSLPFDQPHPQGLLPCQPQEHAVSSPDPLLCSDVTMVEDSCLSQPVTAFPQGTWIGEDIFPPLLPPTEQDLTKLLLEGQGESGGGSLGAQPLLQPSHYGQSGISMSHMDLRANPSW
Test: Immunoblotting (Western blot) analysis of STAT6 degradation efficiency of degraders in treated cells
Format: cell-based
In short: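 Protein levels of STAT5 and STAT6 were assessed in cells cultured at 37 °C in 10% FBS medium after compound exposure, by quantitative fluorescent Western blotting normalised to equal loading and referenced to GAPDH.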

[1] = L1236 cells, read-out: DC50 S6 L1236
[2] = MOLM-16 cells, class symbols, read-out: DC50 S6 MOLM-16

Row | SMILES | DC50 [1] [µM] | DC50 [2] [µM] | DC50 (MOLM-16 cells, numeric bound, read-out: DC50 S6 MOLM-16) [µM] | DC50 (read-out: DC50 S6 MB231, MB231 cells) [µM]
1 | Cc1ncsc1-c1ccc([C@H](C)NC(=O)[C@@H]2C[C@@H](O)CN2C(=O)[C@@H](NC(=O)CCCCCCCCNC(=O)CO[C@H]2C[C@@H](C(=O)N3CCC[C@H](c4ccccc4)C3)N(C(=O)[C@@H](NC(=O)c3cc4cc(C(F)(F)P(=O)(O)O)ccc4s3)C(C)(C)C)C2)C(C)(C)C)cc1 [Compound 441, (difluoro(2-(((S)-1-((2S,4S)-4-(2-((9-(((S)-1-((2S,4R)-4-hydroxy-2-(((S)-1-(4-(4-methylthiazol-5-yl)phenyl)ethyl)carbamoyl)pyrrolidin-1-yl)-3,3-dimethyl-1-oxobutan-2-yl)amino)-9-oxononyl)amino)-2-oxoethoxy)-2-((R)-3-phenylpiperidine-1-carbonyl)pyrrolidin-1-yl)-3,3-dimethyl-1-oxobutan-2-yl)carbamoyl)benzo[b]thiophen-5-yl)methyl)phosphonic acid] | > 10 | > 10 |  | 
2 | CC(C)(C)[C@H](NC(=O)c1cc2cc(C(F)(F)P(=O)(O)O)ccc2s1)C(=O)N1C[C@@H](OCC(=O)NCCCCCC#Cc2cccc3c2C(=O)N(C2CCC(=O)NC2=O)C3=O)C[C@H]1C(=O)N1CCO[C@H](c2ccccc2)C1 (stereo partly drawn) [Compound 487, ((2-(((2S)-1-((2S,4S)-4-(2-((7-(2-(2,6-dioxopiperidin-3-yl)-1,3-dioxoisoindolin-4-yl)hept-6-yn-1-yl)amino)-2-oxoethoxy)-2-((R)-2-phenylmorpholine-4-carbonyl)pyrrolidin-1-yl)-3,3-dimethyl-1-oxobutan-2-yl)carbamoyl)benzo[b]thiophen-5-yl)difluoromethyl)phosphonic acid] |  | > 10 |  | 
3 | Cc1ncsc1-c1ccc([C@H](C)NC(=O)[C@@H]2C[C@@H](O)CN2C(=O)[C@@H](NC(=O)CCCCNC(=O)CC(=O)N2CCN(C(=O)[C@@H](NC(=O)c3cc4cc(C(F)(F)P(=O)(O)O)ccc4s3)C(C)(C)C)[C@H](C(=O)N3CCC[C@H](c4ccccc4)C3)C2)C(C)(C)C)cc1 [Compound 455, (difluoro(2-(((S)-1-((S)-4-(3-((5-(((S)-1-((2S,4R)-4-hydroxy-2-(((S)-1-(4-(4-methylthiazol-5-yl)phenyl)ethyl)carbamoyl)pyrrolidin-1-yl)-3,3-dimethyl-1-oxobutan-2-yl)amino)-5-oxopentyl)amino)-3-oxopropanoyl)-2-((R)-3-phenylpiperidine-1-carbonyl)piperazin-1-yl)-3,3-dimethyl-1-oxobutan-2-yl)carbamoyl)benzo[b]thiophen-5-yl)methyl)phosphonic acid] | > 10 | > 10 |  | 
4 | Cc1ncsc1-c1ccc([C@H](C)NC(=O)[C@@H]2C[C@@H](O)CN2C(=O)[C@@H](NC(=O)CCCCCCCCCNC(=O)COc2ccc3c(c2)CN(C(=O)[C@@H](NC(=O)c2cc4cc(C(F)(F)P(=O)(O)O)ccc4s2)C(C)(C)C)[C@H](C(=O)N2CCC[C@H](c4ccccc4)C2)C3)C(C)(C)C)cc1 [Compound 478, (difluoro(2-(((S)-1-((S)-7-(2-((10-(((S)-1-((2S,4R)-4-hydroxy-2-(((S)-1-(4-(4-methylthiazol-5-yl)phenyl)ethyl)carbamoyl)pyrrolidin-1-yl)-3,3-dimethyl-1-oxobutan-2-yl)amino)-10-oxodecyl)amino)-2-oxoethoxy)-3-((R)-3-phenylpiperidine-1-carbonyl)-3,4-dihydroisoquinolin-2(1H)-yl)-3,3-dimethyl-1-oxobutan-2-yl)carbamoyl)benzo[b]thiophen-5-yl)methyl)phosphonic acid] |  | > 10 |  | 
5 | Cc1ncsc1-c1ccc([C@H](C)NC(=O)[C@@H]2C[C@@H](O)CN2C(=O)[C@@H](NC(=O)CCCNC(=O)CO[C@H]2C[C@@H](C(=O)N3CCO[C@H](c4ccccc4)C3)N(C(=O)[C@@H](NC(=O)c3cc4cc(C(F)(F)P(=O)(O)O)ccc4s3)C(C)(C)C)C2)C(C)(C)C)cc1 [Compound 427, (difluoro(2-(((S)-1-((2S,4S)-4-(2-((4-(((S)-1-((2S,4R)-4-hydroxy-2-(((S)-1-(4-(4-methylthiazol-5-yl)phenyl)ethyl)carbamoyl)pyrrolidin-1-yl)-3,3-dimethyl-1-oxobutan-2-yl)amino)-4-oxobutyl)amino)-2-oxoethoxy)-2-((R)-2-phenylmorpholine-4-carbonyl)pyrrolidin-1-yl)-3,3-dimethyl-1-oxobutan-2-yl)carbamoyl)benzo[b]thiophen-5-yl)methyl)phosphonic acid] | > 10 | > 10 |  | 
6 | O=C1CCC(N2Cc3cc(C#CCCCCCC(=O)N4CC[C@H]5CC[C@@H](C(=O)N6CC[C@@H](c7ccccc7)C6)N5C(=O)[C@@H](NC(=O)c5cc6cc(C(F)(F)P(=O)(O)O)ccc6s5)C4)ccc3C2=O)C(=O)N1 (stereo partly drawn) [Compound 574, ((2-(((5S,8S,10aR)-3-(8-(2-(2,6-dioxopiperidin-3-yl)-1-oxoisoindolin-5-yl)oct-7-ynoyl)-6-oxo-8-((S)-3-phenylpyrrolidine-1-carbonyl)decahydropyrrolo[1,2-a][1,5]diazocin-5-yl)carbamoyl)benzo[b]thiophen-5-yl)difluoromethyl)phosphonic acid] | > 10 | > 10 |  | 
7 | CC(C)(C)[C@H](NC(=O)c1cc2cc(C(F)(F)P(=O)(O)O)ccc2s1)C(=O)N1C[C@@H](OCCCCCCC#Cc2cccc3c2CN(C2CCC(=O)NC2=O)C3=O)C[C@H]1C(=O)N1CCOC(c2cccnc2)C1 (stereo partly shown) [Compound 609] |  |  | > 0.3 | 
8 | CC(C)(C)[C@H](NC(=O)c1cc2cc(C(F)(F)P(=O)(O)O)ccc2s1)C(=O)N1Cc2cc(OCC(=O)NCC#Cc3ccc4c(c3)C(=O)N(C3CCC(=O)NC3=O)C4=O)ccc2C[C@H]1C(=O)N1CCO[C@H](c2ccccc2)C1 (stereo partly drawn) [Compound 536, ((2-(((2S)-1-((3S)-7-(2-((3-(2-(2,6-dioxopiperidin-3-yl)-1,3-dioxoisoindolin-5-yl)prop-2-yn-1-yl)amino)-2-oxoethoxy)-3-((R)-2-phenylmorpholine-4-carbonyl)-3,4-dihydroisoquinolin-2(1H)-yl)-3,3-dimethyl-1-oxobutan-2-yl)carbamoyl)benzo[b]thiophen-5-yl)difluoromethyl)phosphonic acid] |  | 1 to 10 |  | 
9 | Cc1ncsc1-c1ccc([C@H](C)NC(=O)[C@@H]2C[C@@H](O)CN2C(=O)[C@@H](NC(=O)CCNC(=O)COc2ccc3c(c2)CN(C(=O)[C@@H](NC(=O)c2cc4cc(C(F)(F)P(=O)(O)O)ccc4s2)C(C)(C)C)[C@H](C(=O)N2CCO[C@H](c4ccccc4)C2)C3)C(C)(C)C)cc1 [Compound 462, (difluoro(2-(((S)-1-((S)-7-(2-((3-(((S)-1-((2S,4R)-4-hydroxy-2-(((S)-1-(4-(4-methylthiazol-5-yl)phenyl)ethyl)carbamoyl)pyrrolidin-1-yl)-3,3-dimethyl-1-oxobutan-2-yl)amino)-3-oxopropyl)amino)-2-oxoethoxy)-3-((R)-2-phenylmorpholine-4-carbonyl)-3,4-dihydroisoquinolin-2(1H)-yl)-3,3-dimethyl-1-oxobutan-2-yl)carbamoyl)benzo[b]thiophen-5-yl)methyl)phosphonic acid] | > 10 | > 10 |  | 
10 | Cc1ncsc1-c1ccc(CNC(=O)[C@@H]2C[C@@H](O)CN2C(=O)[C@@H](NC(=O)CCCCCCCNC(=O)CCN(C(=O)[C@@H]2CCCN2C(=O)[C@@H](NC(=O)c2cc3cc(C(F)(F)P(=O)(O)O)ccc3s2)C(C)(C)C)c2ccc(Br)cc2)C(C)(C)C)cc1 [Compound 398] ({Benzothienyl2CO(5-CF2PO3H2)}-[Tle]P[βAla(N-(4-Br-phenyl))][Aoc][Tle][Hyp]-{NHBn(4-(4-Me-thiazol-5-yl))}) |  |  |  | > 10
11 | CC(C)(C)[C@H](NC(=O)c1cc2cc(C(F)(F)P(=O)(O)O)ccc2s1)C(=O)N1Cc2cc(OCC(=O)NCCCCCCCCC#Cc3cccc4c3C(=O)N(C3CCC(=O)NC3=O)C4=O)ccc2C[C@H]1C(=O)N1CCC[C@H](c2ccccc2)C1 (stereo partly drawn) [Compound 559, ((2-(((2S)-1-((3S)-7-(2-((10-(2-(2,6-dioxopiperidin-3-yl)-1,3-dioxoisoindolin-4-yl)dec-9-yn-1-yl)amino)-2-oxoethoxy)-3-((R)-3-phenylpiperidine-1-carbonyl)-3,4-dihydroisoquinolin-2(1H)-yl)-3,3-dimethyl-1-oxobutan-2-yl)carbamoyl)benzo[b]thiophen-5-yl)difluoromethyl)phosphonic acid] |  | > 10 |  | 

Source: patent US20230295197A1, “STAT5 and STAT6 Degraders and Uses Thereof” (REGENTS OF THE UNIVERSITY OF MICHICAN, priority 2022, published 2023)
